According to US20220016205A1, “METHODS OF OVERCOMING RESISTANCE TO IMMUNE CHECKPOINT INHIBITORS” (Board of Regents, The University of Texas System, priority 2018, published 2022):

How the values were obtained:
[1] = tested on: RAW 264.7 cells; experiment: qPCR in RAW 264.7 cells co-cultured with 344SQR cells (transwell) with follistatin or K02288; format: cell-based, murine; settings: 344SQR co-culture plus K02288 compared with 344SQR only (FIG. 3E)
Source text: (§1) Quantitative polymerase chain reaction (qPCR). Total RNA was isolated from cells and tumors with Triazol (Life Technologies) according to the manufacturer's protocol. For studies of BMP7, p38α, IL-1α, IL-1β, TNF-α, RANTES, IL-2, and IFN-γ expression, mRNA was retrotranscribed with the iScript™ gDNA Clear cDNA Synthesis Kit (BioRad) and analyzed by qPCR using SYBR Green (Life Technologies) with specific primers according to the manufacturer's protocol. The comparative Ct method was used to calculate the relative abundance of mRNAs compared with ACTB (beta-actin) expression for cancer cells or CD45 expression for immune cells.
Co-culture experiments and treatments. Viable cells were counted with a hemocytometer (0.4% Trypan blue solution) and diluted to 40,000 cells per well in 24-wells plates. Cells from 344SQP, 344SQR, 344SQ ctrl, or 344SQ-shBMP7 tumors were seeded at the top inserts (24-mm Transwell with 0.4-μm pore polycarbonate membrane insert, Sigma-Aldrich), and RAW 264.7 or CD4^+ T cells were seeded at the bottom of the transwell system. […] RNA was then isolated from RAW 264.7 or CD4^+ T cells and analyzed for p38α, IL-1α, IL-1β, TNF-α, RANTES, IL-2 and IFN-γ expression with qPCR. […]

[2] = tested on: peritoneal macrophages; experiment: qPCR in peritoneal macrophages co-cultured with 344SQR cells (transwell) with follistatin or K02288; format: cell-based, mouse; settings: 344SQR co-culture plus K02288 compared with 344SQR only (FIG. 3F)
[3] = tested on: T lymphocytes; settings: Matsuda et al., 1998; cited from earlier work
[4] = tested on: T-cell; settings: Crawley et al., 1997; cited from earlier work
[5] = tested on: 344SQR shBMP7 tumors; experiment: Tumor growth, survival and TIL flow cytometry of mice with 344SQR shBMP7 (BMP7-knockdown) tumors treated with checkpoint antibodies; format: in vivo, 129Sv/Ev mice; settings: antibody 10 mg/kg twice a week for 2 weeks in combination with BMP7 knockdown, compared with control (FIGS. 5A, 5I, 5J)
Method: In vivo studies. All mouse studies were approved by the Institutional Animal Care and Use Committee (IACUC) of The University of Texas MD Anderson Cancer Center before their initiation; animal care was provided according to IACUC standards, and all mice had been bred and were maintained in our own specific pathogen-free mouse colony. For RRBS, RPPA and TILs studies, primary tumors were established by subcutaneous injection of 344SQP or 344SQR cells (0.5×10^6 in 100 μL of sterile phosphate buffered saline [PBS]) into the leg of syngeneic 129Sv/Ev mice (female, 12-16 weeks old). Mice were then given intraperitoneal injections of anti-PD1 or control IgG antibodies (10 mg/kg) (Bio X cell), starting on day 4 after tumor cell inoculation and continuing twice per week for a total of 4 doses. At 24 hours after the last anti-PD1 treatment, tumor tissues were collected for DNA (2 mice/group) and protein isolation (2 or 3 mice/group). For TILs isolation, tumor tissues (3 mice/group) were collected a week after the last treatment with anti-PD1. […] Tumors were measured with calipers three times per week and recorded as tumor volume (in mm^3)=width^2×length/2. […] Mouse survival rates were analyzed by using the Kaplan-Meier method and compared with log-rank tests.
Tissue processing and flow cytometry. […] All samples were analyzed with an LSRII flow cytometer and FlowJo software (version 10.0.7). […]

[6] = tested on: RAW 264.7 cells; experiment: qPCR of p38α, IL-1α, IL-1β, TNF-α, RANTES in RAW 264.7 cells treated with BMP7 or BMP7 plus follistatin; format: cell-based, murine; settings: BMP7 compared to untreated control, 24 or 48 hours (FIG. 3G)
Source text: as §1
(§2) Co-culture experiments and treatments. Viable cells were counted with a hemocytometer (0.4% Trypan blue solution) and diluted to 40,000 cells per well in 24-wells plates. Cells from 344SQP, 344SQR, 344SQ ctrl, or 344SQ-shBMP7 tumors were seeded at the top inserts (24-mm Transwell with 0.4-μm pore polycarbonate membrane insert, Sigma-Aldrich), and RAW 264.7 or CD4^+ T cells were seeded at the bottom of the transwell system. […] RNA was then isolated from RAW 264.7 or CD4^+ T cells and analyzed for p38α, IL-1α, IL-1β, TNF-α, RANTES, IL-2 and IFN-γ expression with qPCR.

[7] = tested on: peritoneal macrophages; experiment: qPCR of p38α, IL-1α, IL-1β, TNF-α, RANTES in peritoneal macrophages treated with BMP7 or BMP7 plus follistatin; format: cell-based, mouse; settings: BMP7 compared to untreated control (FIG. 3G)
Source text: as §1, §2

[8] = tested on: CD4^+ T cells; experiment: qPCR of p38α, IFN-γ, IL-2 in activated CD4+ T cells treated with BMP7 or BMP7 plus follistatin; format: cell-based, mouse
Source text: as §1
Co-culture experiments and treatments. Viable cells were counted with a hemocytometer (0.4% Trypan blue solution) and diluted to 40,000 cells per well in 24-wells plates. Cells from 344SQP, 344SQR, 344SQ ctrl, or 344SQ-shBMP7 tumors were seeded at the top inserts (24-mm Transwell with 0.4-μm pore polycarbonate membrane insert, Sigma-Aldrich), and RAW 264.7 or CD4^+ T cells were seeded at the bottom of the transwell system. CD4^+ T cells were isolated from splenocytes by using Dynabeads Untouched Mouse CD4 Cells Kit (Thermo Fisher Scientific—Life Technologies, Catalog #11416D) and activated with LEAF purified anti-mouse CD3c antibody (5 μg/mL) and LEAF purified anti-mouse CD28 antibody (1 μg/mL) (Biolegend). […] RNA was then isolated from RAW 264.7 or CD4^+ T cells and analyzed for p38α, IL-1α, IL-1β, TNF-α, RANTES, IL-2 and IFN-γ expression with qPCR.
Next, CD4^+ T cells were co-cultured with 344SQP or 344SQR cells, and 344SQR ctrl or 344SQR shBMP7 cells, and the expression of p38α, IFN-γ, and IL-2 analyzed. […] To confirm that these findings depended on BMP7 and not on some other secreted molecule, CD4^+ T cells were treated with BMP7 with or without follistatin and p38α, IFN-γ, and IL-2 expression evaluated. […]

[9] = tested on: RAW 264.7 cells; experiment: p38a silencing with siRNAs in RAW 264.7 cells, qPCR / expression analysis; format: cell-based, murine; settings: BMP7 treatment of cells treated with siRNAs targeting p38a (FIG. 3K)
Source text: as §1
Transfection siRNA. siRNA targeting p38a (Life Technologies, Cat #4390771) and its respective negative-control negative control (Life Technologies, Cat #4390843) were reverse-transfected into RAW 264.7 macrophages with Lipofectamine 2000 (Life Technologies) to a final concentration of […].

For `COc1cc(-c2cc(-c3cccc(O)c3)cnc2N)cc(OC)c1OC` [K02288, reference compound], the “expression of p38a and p38α-regulated cytokines and chemokines” value [1] was “lower expression” and the “expression of p38a and p38α-regulated cytokines and chemokines” value [2] was “lower expression”.

For `C[S+]([O-])c1ccc(-c2nc(-c3ccncc3)c(-c3ccc(F)cc3)[nH]2)cc1` (stereo not shown) [SB203580], the “transcriptional activation of the IL-2 promoter” value [3] is listed as “suppressed the transcriptional activation” and the “T-cell proliferation in response to IL-2” value [4] is listed as “suppressed T-cell proliferation”.

With “anti-PDL1: anti-PDL1 (Durvalumab, Pharmacy MD Anderson)” the survival [5] was “increased survival”.

B1: BMP7: bone morphogenetic protein (BMP)-7, secreted protein of the TGF-β superfamily (R&D Systems, Catalog #5666-BP-010) (protein, UniProt P18075 293-431, looked up)
Bone morphogenetic protein 7: STGSKQRSQNRSKTPKNQEALRMANVAENSSSDQRQACKKHELYVSFRDLGWQDWIIAPEGYAAYYCEGECAFPLNSYMNATNHAIVQTLVHFINPETVPKPCCAPTQLNAISVLYFDDSSNVILKKYRNMVVRACGCH
With B1 the “expression of p38a and p38α-regulated cytokines and chemokines” value [6] was “lower expression”, the “expression of p38a and p38α-regulated cytokines and chemokines” value [7] was “lower expression” and the p38α expression ([8]; effect of BMP7) was “led to changes”. The “IFN-γ and IL-2 expression” value ([8]; effect of BMP7, via p38α) was “decreased” and the “expression of TNF-α, IL1-β, and CD206” value [9] was “did not alter”.
